# Reference: patent US20060281791A1, “Methods of increasing proliferation of adult mammalian cardiomyocytes through p38 map kinase inhibition” (CHILDREN'S MEDICAL CENTER CORPORATION, priority 2005, published 2006)
# Assays:
# [1] = tested on: myocardial infarction in adult rats; assay: Vessel density in the scar area after myocardial infarction; assay type: in vivo, rat; conditions: rats after MI
# Protocol: To determine whether p38 inhibition/FGF1 stimulation can induce cardiomyocyte proliferation in vivo and whether it has a positive effect on cardiac function after cardiac injury we created myocardial infarctions (MI) in adult rats (250 g) by coronary artery ligation. The p38 inhibitor SB203580 HCl or its vehicle, saline, were injected intraperitoneal every three days for the first month of the study. FGF1 or its carrier BSA was injected mixed with self-assembling peptides once into the infarct border zone immediately after coronary artery ligation. We injecting a total of 80 μl of 400 ng/ml FGF1, given at 3 different injection sites, into 400 mg of infarcted myocardium estimated to deliver a FGF 1 concentration to the cardiomyocytes of approximately 50 to 100 ng/ml. Animals were analyzed 24 hours, 2 weeks, and 3 month after surgery. […]
# One possible explanation is the angiogenic effect of FGF1. To determine the effect of our treatments on vascularization we determined the vessel density in the scar area. […]
# Hearts were embedded in tissue-freezing medium (Fisher) without fixation, frozen in 2-methylbutane (cooled in liquid nitrogen), stored at −80° C., and finally sectioned (20 μm; Leica 3050S). […] Immune complexes were detected with ALEXA 488-, or ALEXA 594-conjugated secondary antibodies (1:400; Molecular Probes). […]
# [2] = tested on: myocardial infarction in adult rats; assay: Fractional shortening (echocardiography) after myocardial infarction; assay type: in vivo, rat
# Protocol: The p38 inhibitors were tested for in vivo effect following myocardial infarct. For the evaluation of left ventricular function, transthoracic echocardiogram can be performed on the rats after myocardial infarction 1 day or 14 days right. Rats can be anesthetized with 4-5% isoflurane in an induction chamber. The chest can be shaved, and the rats can be placed in dorsal decubitus position and intubated for continuous ventilation. 1-2% isoflurane can be continuously supplied via a mask. 3 electrodes can be adhered to their paws to record the electrocardiographic tracing simultaneously with the cardiac image identifying the phase of a cardiac cycle.
# Echocardiograms can be performed with a commercially available echocardiography system equipped with 7.5 MHz phased-array transducer (Philips-Hewlett-Packard). The transducer can be positioned on the left anterior side of the chest. Longitudinal images of the heart can be obtained, including the left ventricle, atrium, the mitral valve and the aorta, followed by the cross-sectional images from the plane of the base to the left ventricular apical region. M-mode tracings can be obtained at the level below the tip of the mitral valve leaflets at the level of the papillary muscles. Fractional shorting (FS) can be calculated as a measure of systolic function, according to the M-mode tracing from the cross-sectional view: maximal LV end-diastolic diameter (at the time of maximal cavity dimension), minimal LV end-systolic diameter (at the time of maximum anterior motion of the posterior wall), FS (%)={(LVEDD−LVESD)/LVEDD}×100.
# To determine whether p38 inhibition/FGF1 stimulation can induce cardiomyocyte proliferation in vivo and whether it has a positive effect on cardiac function after cardiac injury we created myocardial infarctions (MI) in adult rats (250 g) by coronary artery ligation. The p38 inhibitor SB203580 HCl or its vehicle, saline, were injected intraperitoneal every three days for the first month of the study. FGF1 or its carrier BSA was injected mixed with self-assembling peptides once into the infarct border zone immediately after coronary artery ligation. We injecting a total of 80 μl of 400 ng/ml FGF1, given at 3 different injection sites, into 400 mg of infarcted myocardium estimated to deliver a FGF 1 concentration to the cardiomyocytes of approximately 50 to 100 ng/ml. Animals were analyzed 24 hours, 2 weeks, and 3 month after surgery. We performed two blinded and randomized studies using 62 rats for the 2 week and 61 rats for the 3 month experiment, with at least 10 animals in each experimental group. Animals were treated with saline plus BSA (control), SB203580 HCl plus BSA (p38i), saline plus FGF1 (FGF1), or SB203580 HCl plus FGF1 (p38i/FGF1).
# Animal experiments were performed in accordance with guidelines of Children's Hospital in Boston and were approved by the Harvard Medical School Standing Committee on Animals. Myocardial infarction (MI) was produced in ˜250 gm male Sprague-Dawley rats (Charles River and Harlan) as described previously (Hsieh et al., 2006). Briefly, rats were anesthetized by pentobarbital and, following tracheal intubation, the hearts were exposed via left thoracotomy. The left coronary artery was identified after pericardiotomy and was ligated by suturing with 6-0 prolene at the location ˜3mm below the left atrial appendix. For the sham operation, suturing was performed without ligation. […]
substance,measurement,setting,value
FGF1: growth factor FGF1 (R&D Systems),vessel density in the scar area,[1],increases significantly
same,improvement of fractional shortening,[2]; 3 month after infarction,maintained
same,left ventricular fractional shortening,[2]; 24 hours after MI,significantly improved
same,improvement of fractional shortening,[2]; day 14 after infarction,maintained
